target: Leucine-rich repeat serine/threonine-protein kinase 2 (Homo sapiens, UniProt Q5S007); experiment: Inhibition of recombinant human LRRK2 using LRRKtide peptide and ATP as substrates incubated for 1 hrs by ADP-glo luminescent assay
Sequence (Q5S007 whole entry): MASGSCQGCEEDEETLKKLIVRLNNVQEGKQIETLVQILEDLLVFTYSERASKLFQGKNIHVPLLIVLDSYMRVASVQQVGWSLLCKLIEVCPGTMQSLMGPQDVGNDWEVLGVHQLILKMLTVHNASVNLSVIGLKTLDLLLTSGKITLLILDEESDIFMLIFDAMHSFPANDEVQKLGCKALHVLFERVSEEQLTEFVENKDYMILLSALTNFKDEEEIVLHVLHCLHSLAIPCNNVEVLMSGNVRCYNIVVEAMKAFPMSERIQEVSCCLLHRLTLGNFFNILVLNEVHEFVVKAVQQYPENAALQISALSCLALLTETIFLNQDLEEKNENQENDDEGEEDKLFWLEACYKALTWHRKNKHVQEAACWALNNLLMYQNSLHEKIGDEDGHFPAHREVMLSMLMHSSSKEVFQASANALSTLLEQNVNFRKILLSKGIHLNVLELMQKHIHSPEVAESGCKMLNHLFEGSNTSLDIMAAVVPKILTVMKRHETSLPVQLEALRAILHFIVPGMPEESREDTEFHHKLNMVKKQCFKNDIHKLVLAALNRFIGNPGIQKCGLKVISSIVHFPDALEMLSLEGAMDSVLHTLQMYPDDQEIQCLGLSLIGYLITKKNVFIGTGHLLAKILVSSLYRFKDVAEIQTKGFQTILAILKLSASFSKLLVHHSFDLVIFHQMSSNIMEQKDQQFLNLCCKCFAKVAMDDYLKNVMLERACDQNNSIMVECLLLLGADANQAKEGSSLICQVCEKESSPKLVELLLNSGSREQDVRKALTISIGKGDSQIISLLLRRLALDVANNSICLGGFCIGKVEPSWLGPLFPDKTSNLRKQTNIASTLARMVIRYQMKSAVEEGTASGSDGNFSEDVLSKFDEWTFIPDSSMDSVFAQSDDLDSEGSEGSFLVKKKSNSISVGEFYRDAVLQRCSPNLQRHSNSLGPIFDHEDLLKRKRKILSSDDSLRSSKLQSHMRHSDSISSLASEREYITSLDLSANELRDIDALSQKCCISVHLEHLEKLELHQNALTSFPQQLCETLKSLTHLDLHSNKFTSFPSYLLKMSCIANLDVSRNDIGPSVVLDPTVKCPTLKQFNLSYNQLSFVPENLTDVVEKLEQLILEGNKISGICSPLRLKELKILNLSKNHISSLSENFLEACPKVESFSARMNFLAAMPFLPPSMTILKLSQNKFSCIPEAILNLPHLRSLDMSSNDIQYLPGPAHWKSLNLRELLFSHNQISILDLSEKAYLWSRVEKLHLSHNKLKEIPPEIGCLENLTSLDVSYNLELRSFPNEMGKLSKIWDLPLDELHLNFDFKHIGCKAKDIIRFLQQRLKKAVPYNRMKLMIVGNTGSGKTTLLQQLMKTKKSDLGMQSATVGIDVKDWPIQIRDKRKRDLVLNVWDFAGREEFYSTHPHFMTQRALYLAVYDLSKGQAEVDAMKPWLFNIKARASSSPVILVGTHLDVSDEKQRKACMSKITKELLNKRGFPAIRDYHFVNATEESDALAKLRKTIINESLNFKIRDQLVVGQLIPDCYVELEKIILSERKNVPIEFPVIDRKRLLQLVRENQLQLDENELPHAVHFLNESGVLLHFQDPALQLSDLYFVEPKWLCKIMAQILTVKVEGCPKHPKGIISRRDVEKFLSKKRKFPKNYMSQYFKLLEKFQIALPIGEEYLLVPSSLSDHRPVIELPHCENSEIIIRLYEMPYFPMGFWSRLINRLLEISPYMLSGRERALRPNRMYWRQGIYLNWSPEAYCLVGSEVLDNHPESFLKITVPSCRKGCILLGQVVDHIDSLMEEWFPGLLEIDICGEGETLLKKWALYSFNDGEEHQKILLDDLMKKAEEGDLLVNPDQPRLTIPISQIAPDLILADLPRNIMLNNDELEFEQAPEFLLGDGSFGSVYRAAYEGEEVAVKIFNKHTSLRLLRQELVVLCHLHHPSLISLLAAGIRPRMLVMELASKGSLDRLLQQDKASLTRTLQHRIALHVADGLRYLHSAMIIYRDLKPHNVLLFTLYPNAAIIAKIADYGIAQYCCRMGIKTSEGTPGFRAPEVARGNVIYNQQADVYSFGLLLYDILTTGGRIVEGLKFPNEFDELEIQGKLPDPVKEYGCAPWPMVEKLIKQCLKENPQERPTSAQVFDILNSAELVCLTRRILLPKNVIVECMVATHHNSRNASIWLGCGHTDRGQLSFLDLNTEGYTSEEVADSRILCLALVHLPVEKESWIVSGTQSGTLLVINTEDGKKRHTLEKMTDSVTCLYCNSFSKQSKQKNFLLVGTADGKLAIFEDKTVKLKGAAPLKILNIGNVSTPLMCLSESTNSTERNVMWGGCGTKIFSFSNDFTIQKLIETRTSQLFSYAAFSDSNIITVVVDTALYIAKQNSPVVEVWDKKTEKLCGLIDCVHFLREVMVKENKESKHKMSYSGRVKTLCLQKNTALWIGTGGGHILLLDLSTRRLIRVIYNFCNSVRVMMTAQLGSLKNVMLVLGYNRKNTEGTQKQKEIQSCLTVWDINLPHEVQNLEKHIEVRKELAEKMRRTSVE

IC50, < 10 nM:
O=C1NCCCOc2ccc3[nH]nc(c3c2)-c2cc(cc(N3CCN(C4COC4)CC3)c2)CO1
O=C1NCCCOc2ccc3[nH]nc(c3c2)-c2csc(n2)CCO1
O=C1NCCCOc2ccc3[nH]nc(c3c2)-c2cc(cc(N3CCC(N4CCOCC4)CC3)c2)CO1
O=C1NCCCOc2ccc3[nH]nc(c3c2)-c2ccc(C3CC3)c(c2)CO1
O=C1NCCCOc2ccc3[nH]nc(c3c2)-c2cc(cc(N3CCC4(COC4)C3)c2)CO1
O=C1NCCCOc2ccc3[nH]nc(c3c2)-c2cc(cc(N3CCC(N4CCCC4)CC3)c2)CO1
